Ends that are not written are not given here.
What was measured:
Type in all cases: cell-based
[1] = tested on: Bacillus subtilis; test: Growth inhibition of Gram-positive bacteria by P18 (optical density at 620 nm); conditions: for optical density at 620 nm: B. subtilis suspension, 25 μM P18 solution, mean of 8 mixtures
Method: (§1) The growth inhibition by P18 was investigated on Gram-positive and Gram-negative bacteria. Shin et al. 1999 (loc.cit.) had already detected an inhibition on the model organisms Escherichia coli and Bacillus subtilis within a period up to 18 hours.
(§2) The growth medium used for this was LB medium as complex medium for the organisms Escherichia coli, Bacillus subtilis and Brevibacterium epidermidis. The medium comprised 10 g of trypton, 5 g of yeast extract and 10 g of NaCl per liter.
(§3) The growth test was carried out as follows: A shake flask with medium was inoculated with Escherichia coli, Bacillus subtilis or Brevibacterium epidermidis and incubated with shaking overnight at 30° C. and 200 rpm. A 96-well microtiter plate was filled with in each case 100 μl LB medium and inoculated with E.-coli, B.-subtilis or B. epidermidis suspensions of the overnight culture. The bacteria suspension was adjusted at the start of the experiment to an optical density, measured at 620 nm, of about 0.02. The concentrates of the P18 inhibitor solutions were 1 mM in water.
(§4) The growth of the following mixtures was compared by measuring the optical density:
(§5) bacteria suspension without the addition of an inhibitor;
(§6) bacteria suspension and addition of an aqueous P18 solution with a final concentration of 25 μM. The aqueous P18 solution had been freshly prepared.
(§7) The growth was observed over a period of 40 hours by measuring the optical density. […] The growth of Gram-positive bacteria was inhibited initially.

[2] = tested on: Brevibacterium epidermidis; test: as above; conditions: for optical density at 620 nm: B. epidermidis suspension, 25 μM P18 solution, mean of 8 mixtures
Method: as §1, §2, §3, §4, §5, §6, §7

[3] = tested on: Malassezia furfur; test: Long-term stability of P18 (12 weeks at 37° C.) tested on Malassezia furfur, CFU; conditions: for colony-forming units: mean ± SD
Method: Since storage over longer time periods may be necessary, in the following a 1 mM P18 peptide solution (P18 sequence H-KWKLFKKIPKFLHLAKKF-NH2; SEQ ID NO: 3) was stored for 12 weeks at 37° C. and the antifungal activity of the stored solution on Malassezia furfur was compared to the activity of a freshly prepared 1 mM P18 peptide solution. This was done through a growth test, which was carried out as follows:
(§8) Growth medium: M472-Pityrosporum medium according to DSMZ
(§9) The components were sterilized at 121° C., 1 bar superatmospheric pressure for 20 minutes.
(§10) 2 g/L of olive oil (sterilized by filtration and, after autoclaving, added to the other components)
(§11) Since it was a two-phase medium, the complete medium was treated with sonication in order to enlarge the phase boundary.
(§12) For agar plates, if appropriate, 150 g/L of agar agar were added to the medium.
(§13) The growth test was carried out as follows: A shake flask with M472-Pityrosporum medium was inoculated with M. furfur and incubated with shaking overnight at 30° C. and 200 rpm.
A 96-well microtiter plate was filled with in each case 100 μl of M472-Pityrosporum medium and inoculated with M. furfur suspension of the overnight culture. The M. furfur suspension was adjusted at the start of the experiment to an optical density, measured at 600 nm, of 0.02. The concentrates of the inhibitor solutions were 1 mM in water.
The growth of the following batches was compared:
M. furfur suspension without the addition of an inhibitor.
M. furfur suspension and addition of a fresh aqueous P18 solution with a final concentration of 50 μM.
M. furfur suspension and addition of a fresh aqueous P18 solution with a final concentration of 25 μM.
M. furfur suspension and addition of a P18 solution that had been stored at 37° C. for 12 weeks, with a final concentration of 50 μM.
M. furfur suspension and addition of a P18 solution that had been stored at 37° C. for 12 weeks, with a final concentration of 25 μM.
(§14) The microtiter plate was incubated with shaking at 30° C.
The growth was observed over 24 hours by measuring the optical density. The colony-forming units (CFU) were then determined by plating out 1 μl and 5 μl from each of the suspensions and, after incubation for 6 days, counting the colonies. The CFU was determined in order to exclude an influence of the two-phase medium and also the growth form of M. furfur on the optical density. The experiments were carried out at least in triple determinations.

[4] = tested on: Malassezia furfur; test: Minimum inhibitory concentration (MIC) of P18 in the presence of shampoo basic formulation 31-3, CFU after 24 hours; conditions: for CFU after 24 hours of incubation: in presence of shampoo basic formulation 31-3
Method: The minimum inhibitory concentration (MIC) of the peptide P18 (H-KWKLFKKIPKFLHLAKKF-NH2; carboxy-terminal end amidated; SEQ ID NO: 3) in the presence of the shampoo basic formulation 31-3 (table 16) was tested as follows: […]
The following shampoo basic formulation was prepared: […]
The shampoo basic formulation was prepared by mixing and dissolving the components Texapon NSO and Tego Betain L7. The pH was adjusted to pH 6-7 with NaOH.
The effect of the peptide against M. furfur was analyzed as follows:
as §8, §9, §10, §11, §12, §13
A 96-well microtiter plate was filled with in each case 170 μl of M472-Pityrosporum medium and inoculated with 10 μl of M. furfur suspension of the overnight culture. This corresponded to an optical density of 0.02-0.1, measured at 620 nm. 20 μl of shampoo basic formulation 31-3 were added to this mixture. Peptide P18 was dissolved in DMSO with a concentration of 10 mM.
as §14
After incubation for 24 hours, the colony-forming units (CFU) were determined by resuspending 1 μl of each of the suspensions in 10 μl of medium and then plating out the obtained suspensions. After incubation for 6 days, the colonies on the plate were counted. The experiment was carried out in double determination.

Substance: KWKLFKKIPKFLHLAKKF-NH2 [P18, KWKLFKKIPKFLHLAKKF-NH2]
- growth of B. subtilis (in words) ([1]; 25 μM, within 40 hours): achieved growth densities comparable with the noninhibited culture
- optical density at 620 nm ([1]; incubation time 16 h): 0.25
- optical density at 620 nm ([1]; incubation time 24 h): 0.96
- optical density at 620 nm ([1]; incubation time 40 h): 0.67
- growth of B. epidermidis (in words) ([2]; 25 μM, within 40 hours): achieved growth densities comparable with the noninhibited culture
- optical density at 620 nm ([2]; incubation time 16 h): 0.29
- optical density at 620 nm ([2]; incubation time 24 h): 0.56
- optical density at 620 nm ([2]; incubation time 40 h): 1.24
- influence of storage on the activity of the P18 peptide solution ([3]; 1 mM solution stored for 12 weeks at 37° C.): has not influenced the activity
- colony-forming units ([3]; aqueous P18 solution stored 12 weeks at 37° C., 25 μM final conc., incubation time 16-18 h): 6 ± 7
- colony-forming units ([3]; aqueous P18 solution stored 12 weeks at 37° C., 25 μM final conc., incubation time 24 h): 5 ± 5
- colony-forming units ([3]; aqueous P18 solution stored 12 weeks at 37° C., 50 μM final conc., incubation time 16-18 h): 0 ± 0
- colony-forming units ([3]; aqueous P18 solution stored 12 weeks at 37° C., 50 μM final conc., incubation time 24 h): 1 ± 1
- colony-forming units ([3]; fresh aqueous P18 solution, 25 μM final conc., incubation time 16-18 h): 5 ± 8
- colony-forming units ([3]; fresh aqueous P18 solution, 25 μM final conc., incubation time 24 h): 1 ± 2
- colony-forming units ([3]; fresh aqueous P18 solution, 50 μM final conc., incubation time 16-18 h): 0 ± 0
- colony-forming units ([3]; fresh aqueous P18 solution, 50 μM final conc., incubation time 24 h): 1 ± 1
- CFU after 24 hours of incubation ([4]; P18 concentration 25 μM): 80
- CFU after 24 hours of incubation ([4]; P18 concentration 50 μM): 32
- CFU after 24 hours of incubation ([4]; P18 concentration 100 μM): 0
- CFU after 24 hours of incubation ([4]; P18 concentration 200 μM): 0
- CFU after 24 hours of incubation ([4]; P18 concentration 300 μM): 0
- CFU after 24 hours of incubation ([4]; P18 concentration 400 μM): 0
- CFU after 24 hours of incubation ([4]; P18 concentration 500 μM): 0
- P18 concentrations that completely inhibit growth of M. furfur ([4]; in the presence of shampoo basic formulation 31-3, 24 hours): above 100 μM

— patent publication US8765688B2, “Anti-dandruff compositions containing peptides” (priority 2007, dated 2014)
